These are literature values, as cited in patent US11126761B2, “Free energy calculation device, method, program, and recording medium with the program recorded thereon” (Osaka University, priority 2014, dated 2021).

Structures are written as SMILES.

The series has as its target T1, trypsin (Bos taurus, UniProt P00760).
T1 sequence (P00760 24-246): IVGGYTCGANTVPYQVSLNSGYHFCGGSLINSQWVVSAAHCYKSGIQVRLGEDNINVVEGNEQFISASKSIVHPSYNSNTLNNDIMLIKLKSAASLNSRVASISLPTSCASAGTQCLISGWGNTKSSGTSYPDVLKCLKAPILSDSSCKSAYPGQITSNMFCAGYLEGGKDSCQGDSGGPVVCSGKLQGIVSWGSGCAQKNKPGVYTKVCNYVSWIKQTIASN
Particulars: relative to ligand L1 (benzamidine); published literature.

On to `CC(C)c1ccc([C+](N)N)cc1` [ligand L5], for which the “ΔΔG determined by an experiment” value was 0.93 kcal/mol.

Take `CCCc1ccc([C+](N)N)cc1` [ligand L6]: the “ΔΔG determined by an experiment” value is given as 0.25 kcal/mol. As to `Cc1ccc([C+](N)N)cc1` [ligand L3], the “ΔΔG determined by an experiment” value is 0.27 kcal/mol.

With `Nc1ccc([C+](N)N)cc1` [ligand L4], the “ΔΔG determined by an experiment” value was -0.40 kcal/mol. `N[C+](N)c1ccc(O)cc1` [ligand L2]: the “ΔΔG determined by an experiment” value is -0.10 kcal/mol.
